Like-named read-outs stand apart in the source and are kept apart here.
Assays:
[1] = tested on: immature HSC fraction of the BM; details: 200 mg/kg CTX intraperitoneally, day 4
Protocol: In the CIX injury model, either sterile PBS or CTX at final concentration of 200 mg/kg mouse weight was injected intraperitoneally. At day 4 after injection, mice were euthanized and BM was obtained from femurs and tibiae of each mouse (n=5 per group).
Apoptosis was measured by AnnexinV and 7AAD staining as previously described Cheng, T. et al. Nat. Med. 6, 1235-1240 (2000).

PB leucocyte count = test: 5-fluorouracil (5FU) BM injury model, PB counts; assay type: in vivo, mouse; details: single 150 mg/kg 5FU intraperitoneally
Protocol: Similar results were obtained when mice were subjected to BM injury using 5-fluorouracil (5FU) (data not shown). In the 5FU injury model, 150 mg/kg mouse weight 5FU was injected intraperitoneally at day 0 PB was obtained through tail vein bleeding for analysis weekly starting day 0 (n=10 per group).
Next, we examined the role of P2Y14 in long-term hematopoietic recovery from BM injury. The mice were subjected to a single injection of 5FU and followed the peripheral blood (PB) leucocyte counts as well as PB granulocyte, B cell and T cell content by flow cytometry.
Med. 6, 1235-1240 (2000).

Compound | immature HSC fraction of the BM (% LKS+, % CD34lo/-LKS+) ([1]; P2Y14-/- mice) | apoptosis in the immature HSC fraction ([1]; P2Y14-/- mice, AnnexinV and 7AAD) | immature HSC fraction of the BM (% LKS+, % CD34lo/-LKS+) ([1]; wildtype mice) | persistence of greater than normal granulocyte (Gr-1+) count rebound (PB leucocyte count; P2Y14-/- mice) | nadir of total PB leucocyte count (PB leucocyte count; both -/- and +/+ mice) [days] | peak of rebound leucocytosis (PB leucocyte count; both -/- and +/+ mice) [days] | return to baseline leucocyte count (PB leucocyte count; both -/- and +/+ mice)
O=P1(N(CCCl)CCCl)NCCCO1 (stereo not shown) [CTX, cyclophosphamide] | loss of enrichment for immature HSC fraction | increased apoptosis | enrichment of immature HSC fraction | – | – | – | –
O=c1[nH]cc(F)c(=O)[nH]1 [5FU, 5-fluorouracil] | – | – | – | up to 9 weeks | 7 | 14 | 3-4 weeks post-injection

Reference: US20100034832A1, “METHODS FOR MANIPULATING STEM CELLS” (THE GENERAL HOSPITAL CORPORATION, priority 2006, published 2010)
